This note sets out measurements from patent US11046686B2, “Thiadiazole IRAK4 compounds” (Gilead Sciences, Inc., priority 2018, dated 2021).

Molecules are shown by their SMILES. Like-named read-outs stand apart in the source and are kept apart here.

The target in assay [1] is IRAK4 enzyme (Homo sapiens (Human), UniProt Q9NWZ3). As to the kind of experiment: IRAK4 Biochemical Assay (TR-FRET, STK1 KinEASE). The method, then: IRAK4 enzyme (Carna Biosciences, Chuo-ku, Kobe, Japan) activity was measured by detecting phosphorylated peptide substrate formation using an antibody against the phosphorylated peptide substrate. This is a time-resolved fluorescence resonance energy transfer (TR-FRET) immunoassay, based on the STK1 KinEASE Assay (Cisbio, Bedford, Mass.). The assay was designed as a simple two-step, endpoint assay (a 5 μl enzyme reaction followed by 5 μl stop and detect Solution) performed in ProxiPlate-384 Plus plates (Perkin Elmer, Waltham, Mass.). […] Compounds diluted in DMSO were spotted into 384 well plates using a Labcyte® Echo 550 Liquid Handling System prior to addition of IRAK4 enzyme and peptide substrate. Reaction solutions were delivered using a Multi-Flo (Bio-Tek Instruments). The enzyme and peptide solution was incubated with compound for 15 minutes at room temp before the reaction was initiated by the addition of ATP. The standard 5 μl reaction mixture contained 500 μM ATP, […] peptide (STK1 Peptide), 0.75 nM of IRAK4 in reaction buffer (50 mM HEPES, pH 7.0, 0.02% NaN3, 0.01% BSA, 0.1 mM Orthovanadate, 5 mM […], 0.025% NP-40, 1 mM DTT). After 120 min of incubation at room temperature, 5 μl of Stop and Detect Solution (1:100 Cryptate labeled anti-phosphorylated peptide antibody solution and 125 nM Tracer in a 50 mM HEPES pH 7.0 detection buffer containing sufficient EDTA) was added. The plate was then further incubated for 60 minutes at room temperature and read on Envision 2103 Multilabeled reader (PerkinElmer) with excitation/emission/FRET emission at 340 nm/615 nm665 nm, respectively. Fluorescence intensities at 615 nm and 665 nm emission wavelengths were expressed as aratio (665 nm/615 nm). Percentage of inhibition was calculated as below: % Inhibition=100×(Ratiosample−Ratio0% Inhibition)/(Ratio100% Inhibition−Ratio0% Inhibition)
The 0% inhibition value comes from control wells lacking inhibitor.
A general note: TR-FRET usually uses a lanthanide donor and a delayed reading to cut background.

The test system of assay [2] is TNFα. As to the kind of experiment: IRAK4 Monocyte TNFα Cell Based Assay. Also noted: species or system human. The note with it: read-out: EC50 MONO TNF HTRF. In outline: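 TNFα release quantified by HTRF (cryptate/XL665 antibody pair, overnight at RT) after 1 h compound pre-incubation (0.1% DMSO) and 4 h LPS challenge at 50 pg/ml, 37 °C, 5,000 monocytes per well. Signal ratio normalised between unstimulated (0%) and stimulated (100%) controls.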

Where [3] appears, read: second part of Table 2, compounds 33-343, unit inferred, read-out: IC50 IRAK4-HTBS.
Setting [4] is: human monocytes, second part of Table 2, compounds 33-343, unit inferred.
Setting [5] is: Homo sapiens, Monocyte, human monocytes, second part of Table 2, compounds 33-343, unit inferred.

IRAK4 enzyme, sequence (Q9NWZ3 whole entry): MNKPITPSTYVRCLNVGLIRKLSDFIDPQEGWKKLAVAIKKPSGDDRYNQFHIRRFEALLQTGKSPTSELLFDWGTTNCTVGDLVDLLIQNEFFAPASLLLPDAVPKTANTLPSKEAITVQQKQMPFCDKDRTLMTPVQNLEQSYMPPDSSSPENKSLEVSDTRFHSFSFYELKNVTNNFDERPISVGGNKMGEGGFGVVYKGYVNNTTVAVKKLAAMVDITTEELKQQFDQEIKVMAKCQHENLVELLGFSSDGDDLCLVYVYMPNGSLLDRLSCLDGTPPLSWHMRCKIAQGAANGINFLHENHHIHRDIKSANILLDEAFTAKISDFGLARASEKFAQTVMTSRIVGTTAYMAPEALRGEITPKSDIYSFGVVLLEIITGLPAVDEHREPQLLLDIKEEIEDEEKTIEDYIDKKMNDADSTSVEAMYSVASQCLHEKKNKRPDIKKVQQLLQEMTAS

By IC50 is commonly meant the point on the concentration scale where inhibition reaches its midpoint. The EC50 is the midpoint of the concentration-response curve. `CC(C)(O)[C@H]1C[C@H]1c1nnc(-c2cnc(-c3ccc4cc(C#N)cnn34)cc2NC2COC2)s1` (single isomer, unassigned; isomer 4) [136 Isomer 4]: the IC50 in assay [1] (setting [3]) came to 0.74 nM. In assay [2] (setting [4]), the EC50 turned out to be 30.5 nM.
For the molecule `CC(=O)NC1CC2(C1)CN(c1nnc(-c3cnc(-c4ccc5cc(C#N)cnn45)cc3NC(C)C)s1)C2` [Compound 231, N-(2-(5-(6-(3-cyanopyrrolo[1,2-b]pyridazin-7-yl)-4-(isopropylamino)pyridin-3-yl)-1,3,4-thiadiazol-2-yl)-2-azaspiro[3.3]heptan-6-yl)acetamide], the IC50 in assay [1] worked out at 1.17 nM. The EC50 in assay [2] (setting [5]) worked out at 22.2 nM.
Regarding `CC(C)Nc1cc(-c2ccc3cc(C#N)cnn23)ncc1-c1nnc(N2CC3CC(C2)O3)s1` [Compound 233, 7-(5-(5-(6-oxa-3-azabicyclo[3.1.1]heptan-3-yl)-1,3,4-thiadiazol-2-yl)-4-(isopropylamino)pyridin-2-yl)pyrrolo[1,2-b]pyridazine-3-carbonitrile], in assay [1], the IC50 worked out at 0.35 nM. Further, the EC50 in assay [2] (Homo sapiens, Monocyte) came out at 6.4 nM.
`CC(C)Nc1cc(-c2ccc3cc(C#N)cnn23)ncc1-c1nnc(N2C3COCC2C3)s1` [Compound 234, 7-(5-(5-(3-oxa-6-azabicyclo[3.1.1]heptan-6-yl)-1,3,4-thiadiazol-2-yl)-4-(isopropylamino)pyridin-2-yl)pyrrolo[1,2-b]pyridazine-3-carbonitrile] gave a half-inhibitory concentration (IC50) in assay [1] of 1.28 nM. Further, the EC50 in assay [2] (setting [5]) was 178 nM.
The like results for `CC(C)Nc1cc(-c2ccc3cc(C#N)cnn23)ncc1-c1nnc(N2CC3CCC(C2)O3)s1` [Compound 235, 7-(5-(5-(8-oxa-3-azabicyclo[3.2.1]octan-3-yl)-1,3,4-thiadiazol-2-yl)-4-(isopropylamino)pyridin-2-yl)pyrrolo[1,2-b]pyridazine-3-carbonitrile] were, in that order, 0.48 nM and 4.4 nM.
`CC(C)Nc1cc(-c2ccc3cc(C#N)cnn23)ncc1-c1nnc(N2C3CCC2COC3)s1` [Compound 236, 7-(5-(5-(3-oxa-8-azabicyclo[3.2.1]octan-8-yl)-1,3,4-thiadiazol-2-yl)-4-(isopropylamino)pyridin-2-yl)pyrrolo[1,2-b]pyridazine-3-carbonitrile]: inhibition in assay [1] was half-maximal at 0.83 nM (IC50). For the same molecule, the EC50 in assay [2] (Homo sapiens, Monocyte) turned out to be 25.8 nM.
Molecule `CC(C)Nc1cc(-c2ccc3cc(C#N)cnn23)ncc1-c1nnc(N2C[C@H]3C[C@@H]2CO3)s1` [Compound 237, 7-(5-(5-((1R,4R)-2-oxa-5-azabicyclo[2.2.1]heptan-5-yl)-1,3,4-thiadiazol-2-yl)-4-(isopropylamino)pyridin-2-yl)pyrrolo[1,2-b]pyridazine-3-carbonitrile] yielded an IC50 in assay [1] of 0.14 nM. Further, the EC50 in assay [2] (setting [5]) worked out at 8.4 nM.
The like results for `CC(C)Nc1cc(-c2ccc3cc(C#N)cnn23)ncc1-c1nnc(N2C[C@@H]3C[C@H]2CO3)s1` [Compound 238, 7-(5-(5-((1S,4S)-2-oxa-5-azabicyclo[2.2.1]heptan-5-yl)-1,3,4-thiadiazol-2-yl)-4-(isopropylamino)pyridin-2-yl)pyrrolo[1,2-b]pyridazine-3-carbonitrile] were, in that order, 0.46 nM and 12.6 nM.
Consider `CC(=O)N[C@H]1CC[C@H](c2nnc(-c3cnc(-c4ccc5cc(C#N)cnn45)cc3N[C@H]3CC[C@@H](O)CC3)s2)CC1` [Compound 244, N-((1R,4r)-4-(5-(6-(3-cyanopyrrolo[1,2-b]pyridazin-7-yl)-4-(((1s,4S)-4-hydroxycyclohexyl)amino)pyridin-3-yl)-1,3,4-thiadiazol-2-yl)cyclohexyl)acetamide], for which the IC50 in assay [1] (setting [3]) stood at 0.93 nM. Besides, the EC50 in assay [2] (setting [4]) was 9.1 nM.
Consider `CC(=O)NC12CC(c3nnc(-c4cnc(-c5ccc6cc(C#N)cnn56)cc4NC(C)C)s3)(C1)C2` [Compound 246, N-(3-(5-(6-(3-cyanopyrrolo[1,2-b]pyridazin-7-yl)-4-(isopropylamino)pyridin-3-yl)-1,3,4-thiadiazol-2-yl)bicyclo[1.1.1]pentan-1-yl)acetamide], for which half-maximal inhibition in assay [1] (IC50) required 1.37 nM. In assay [2] (setting [5]), the EC50 was 43.3 nM.
For the molecule `CC(=O)N[C@H]1CC[C@H](c2nnc(-c3cnc(-c4ccc5cc(C#N)cnn45)cc3NC(C)C)s2)C1` [Compound 247, N-((1S,3S)-3-(5-(6-(3-cyanopyrrolo[1,2-b]pyridazin-7-yl)-4-(isopropylamino)pyridin-3-yl)-1,3,4-thiadiazol-2-yl)cyclopentyl)acetamide], the half-maximal inhibitory concentration (IC50) in assay [1] amounted to 0.8 nM. Moreover, the EC50 in assay [2] (setting [5]) was 25.1 nM.
For `CC(=O)N[C@@H]1CC[C@H](c2nnc(-c3cnc(-c4ccc5cc(C#N)cnn45)cc3NC(C)C)s2)C1` [Compound 248, N-((1R,3S)-3-(5-(6-(3-cyanopyrrolo[1,2-b]pyridazin-7-yl)-4-(isopropylamino)pyridin-3-yl)-1,3,4-thiadiazol-2-yl)cyclopentyl)acetamide] the same measures were 0.93 nM and 16.3 nM.
In assay [1], `CC(=O)NC1CCN(c2nnc(-c3cnc(-c4ccc5cc(C#N)cnn45)cc3NC(C)C)s2)[C@@H](C)C1` (stereo partly drawn) [Compound 249, N-((2S)-1-(5-(6-(3-cyanopyrrolo[1,2-b]pyridazin-7-yl)-4-(isopropylamino)pyridin-3-yl)-1,3,4-thiadiazol-2-yl)-2-methylpiperidin-4-yl)acetamide] gave an IC50 of 0.91 nM. Moreover, the EC50 in assay [2] (setting [5]) was determined as 8.9 nM.
For `CC(=O)N[C@@H]1CCN(c2nnc(-c3cnc(-c4ccc5cc(C#N)cnn45)cc3NC(C)C)s2)C[C@@H]1F` [Compound 250, N-((3S,4R)-1-(5-(6-(3-cyanopyrrolo[1,2-b]pyridazin-7-yl)-4-(isopropylamino)pyridin-3-yl)-1,3,4-thiadiazol-2-yl)-3-fluoropiperidin-4-yl)acetamide] the same measures were 1.17 nM and 8.3 nM.
For `CC(=O)NC1CCN(c2nnc(-c3cnc(-c4ccc5cc(C#N)cnn45)cc3NC(C)C)s2)CC1(F)F` (stereo not drawn) [Compound 251, N-(1-(5-(6-(3-cyanopyrrolo[1,2-b]pyridazin-7-yl)-4-(isopropylamino)pyridin-3-yl)-1,3,4-thiadiazol-2-yl)-3,3-difluoropiperidin-4-yl)acetamide] the same measures were 0.48 nM and 4.4 nM.
The molecule `CC(C)Nc1cc(-c2ccc3cc(C#N)cnn23)ncc1-c1nnc(N2CC3(COC3)C2)s1` [Compound 252, 7-(5-(5-(2-oxa-6-azaspiro[3.3]heptan-6-yl)-1,3,4-thiadiazol-2-yl)-4-(isopropylamino)pyridin-2-yl)pyrrolo[1,2-b]pyridazine-3-carbonitrile] displayed an IC50 in assay [1] of 0.29 nM. In assay [2] (setting [5]), the EC50 was 7 nM.
For `N#Cc1cnn2c(-c3cc(NC4CCOCC4)c(-c4nnc(N5CC6CCC(C5)O6)s4)cn3)ccc2c1` [Compound 256, 7-(5-(5-(8-oxa-3-azabicyclo[3.2.1]octan-3-yl)-1,3,4-thiadiazol-2-yl)-4-((tetrahydro-2H-pyran-4-yl)amino)pyridin-2-yl)pyrrolo[1,2-b]pyridazine-3-carbonitrile] the same measures were 0.68 nM and 4.6 nM.
In turn, `CC(C)Nc1cc(-c2ccc3cc(C#N)cnn23)ncc1-c1nnc(N2CCS(=O)(=O)CC2)s1` [Compound 257, 7-(5-(5-(1,1-dioxidothiomorpholino)-1,3,4-thiadiazol-2-yl)-4-(isopropylamino)pyridin-2-yl)pyrrolo[1,2-b]pyridazine-3-carbonitrile] gave an IC50 in assay [1] of 0.95 nM. In addition, the EC50 in assay [2] (setting [5]) amounted to 10000 nM.
